From US20220087987A1, “A METHOD FOR TREATING SWI/SNF COMPLEX-DEFICIENT CANCERS COMPRISING GLUTATHIONE (GSH) METABOLIC PATHWAY INHIBITOR” (National Cancer Center, priority 2018, published 2022)

Tests used:
ROS = test: Detection of ROS in cells (ROS-Glo); format: cell-based, human; settings: ARID1A-deficient versus ARID1A-proficient ovarian and other cancer cells
Protocol: (§1) GSH, ROS and apoptosis were detected using the GSH/GSSG-Glo Assay (Promega) and/or the GSH-Glo Assay (Promega), the ROS-Glo Assay (Promega), and the Caspase-Glo 3/7 Assay, respectively. To measure levels of GSH, ROS and apoptosis after drug treatment, cells were trypsinized, counted, reseeded at the specified density in 96-well plates and exposed to the indicated concentrations of drugs. After 16-48 hrs, luminescence was measured using an Envision Multi-label plate reader (PerkinElmer). To measure levels of GSH and ROS after siRNA-mediated knockdown, cell lines were transfected with siRNAs (25 nM) using Lipofectamine RNAiMAX. After 48 hrs, cells were trypsinized and transfected repeatedly with siRNAs (25 nM) using Lipofectamine RNAiMAX. Cells were trypsinized after a further 48 hrs, counted, and reseeded at the specified density in 96-well plates. After 72-120 hrs, luminescence was measured using an Envision Multi-label plate reader (PerkinElmer). Cell viability was also measured using the CellTiter-Glo Luminescent Cell Viability Assay (Promega). Caspase-3/7, GSH, and ROS levels were normalized against cell viability. The GSH/GSSG ratio was calculated as the GSH-GSSG signal divided by the GSSG/2 signal. Relative signal ratios in treated samples were normalized against untreated samples.

[1] = system: ARID1A-KO cells and ARID1A-deficient cancer cells; test: Apoptosis detection (cleaved caspase-3/7, Annexin V); format: cell-based, human
Protocol: The Annexin V-FITC/PI Apoptosis Detection Kit (Sigma-Aldrich) was used to detect apoptotic cells. Briefly, the cell pellet was suspended in 1× binding buffer and then incubated with Annexin V-FITC and PI in the dark for 10 min. Fluorescence was analyzed on a Guava flow cytometer (Millipore). Data were analyzed using GuavaSoft software (v. 2.7). Relative ratios of the Annexin V-positive fraction in treated samples were normalized against untreated samples.
as §1, with “To measure levels of GSH and ROS after siRNA-mediated knockdown, cell lines were transfected with siRNAs (25 nM) using Lipofectamine RNAiMAX. After 48 hrs, cells were trypsinized and transfected repeatedly with siRNAs (25 nM) using Lipofectamine RNAiMAX.” left out, “Caspase-3/7, GSH, and ROS levels were normalized against cell viability.” left out, “Relative signal ratios in treated samples were normalized against untreated samples.” left out

[2] = system: uterine cancer cell lines; test: Cell viability of uterine cancer cell lines; format: cell-based, human; settings: treatment for 6 days
Protocol: (§2) Cell viability was examined by measuring the cellular ATP level using the CellTiter-Glo Luminescent Cell Viability Assay (Promega). To measure cell viability after siRNA-mediated knockdown, cell lines were transfected with siRNAs (25 nM) using Lipofectamine RNAiMAX. After 48 hrs, cells were trypsinized and repeatedly transfected with siRNAs (25 nM) using Lipofectamine RNAiMAX. Cells were trypsinized after a further 48 hrs, counted, and reseeded at the specified density in 96-well plates. To measure cell viability after drug treatment, cells were trypsinized, counted, reseeded at the specified density in 96-well plates, and exposed to the indicated concentrations of drugs. Cell viability was measured using the CellTiter-Glo Luminescent Cell Viability Assay. Luminescence was measured using an Envision Multi-label plate reader (PerkinElmer).

GSH = test: Detection of GSH in cells (GSH/GSSG-Glo, GSH-Glo); format: cell-based, human; settings: ARID1A-deficient versus ARID1A-proficient ovarian and other cancer cells
[3] = system: SWI/SNF complexes (SMARCA2, SMARCA4, SMARCB1, PBRM1) deficient cancer cells; test: Cell viability of SWI/SNF complex-deficient cancer cell lines; format: cell-based, human; settings: treatment for 6 days
Protocol: as §2

[4] = system: diffuse-type gastric cancer PDCs; test: Cell viability of diffuse-type gastric cancer PDCs; format: cell-based, human; settings: treatment for 6 days
ovarian PDCs = test: Cell viability of ovarian patient-derived cancer cells; format: cell-based, human; settings: 33 μM APR-246 or 100 μM BSO for 6 days
Protocol: Tumor samples and ascites were obtained from four ovarian cancer patients who underwent surgery or cell-free and concentrated ascites reinfusion therapy at the National Cancer Center Hospital or Kaname-cho Hospital (Tokyo, Japan) and were cultured in vitro. This protocol was approved by the Institutional Review Board of the National Cancer Center (Tokyo, Japan), and informed consent was obtained from the patients. To establish CCCO219 and CCC1216 PDCs, patient ascites (24 ml) were diluted in two volumes of PBS containing 2 mM EDTA, layered over 15 ml Ficoll-Paque PLUS (GE Healthcare), and centrifuged at 2200 rpm for 30 min. The interphase mononuclear layer was transferred to a fresh conical tube and washed twice with PBS containing 2 mM EDTA. […]
as §2, with “To measure cell viability after siRNA-mediated knockdown, cell lines were transfected with siRNAs (25 nM) using Lipofectamine RNAiMAX. After 48 hrs, cells were trypsinized and repeatedly transfected with siRNAs (25 nM) using Lipofectamine RNAiMAX.” left out

[5] = system: bile duct cancer cell lines; test: Cell viability of bile duct cancer cell lines; format: cell-based, human; settings: treatment for 6 days
Protocol: as §2

[6] = system: ARID1A-deficient TOV21G OCCC xenografts; test: Mouse xenograft model, TOV21G; format: in vivo, mice; settings: APR-246 50 mg/kg
Protocol: All mouse experiments were approved by the National Cancer Center (NCC) animal Ethical Committee. Cells were counted and re-suspended in a 1:1 mixture of 100 μl culture medium and 100 μl Matrigel (BD Biosciences) on ice. […] In the subcutaneous model, once the tumors were palpable (about 3-14 days after implantation), mice were randomly divided into two groups. […] In the doxycycline (Dox) treatment study, TOV21G-shNT cells and TOV21G-shGCLC cells were injected into the flanks of 6-week-old female BALB/c-nu/nu mice. […] In other experiments, TOV21G-shNT cells and TOV21G-shGCLC cells were treated with Dox (0.5 μg/ml) for 4 days and then injected into the flank of 6-week-old female BALB/c-nu/nu mice. […] Tumor growth was measured every several days using calipers. The volume of implanted tumors was calculated using the formula V=L×W2/2, where V is volume (mm^3), L is the largest diameter (mm), and W is the smallest diameter (mm). At the end of the experiment, mice were sacrificed in accordance with standard protocols.
GSH was detected using the GSH-Glo Assay (Promega). Tumor samples derived from xenografts were weighed and washed with PBS. The tumor samples were mixed with 50 μl of PBS and homogenized using a Mini Cordless Grinder (Funakoshi). PBS (950 μl) was added to homogenized tumor samples and centrifuged at 4° C. for 10 min at 15,000 rpm. Tumor extract and 2×GSH-Glo Reagent (25 μl of each) were mixed in white 96-well plates (Greiner) and incubated for 30 min at room temperature. Luciferin Detection Reagent (50 μl) was added and the samples were incubated for 15 min at room temperature. Luminescence was measured using an Envision Multi-label plate reader (PerkinElmer). GSH signal intensities per 1 mg of tumor sample were calculated.
Formalin-fixed, paraffin-embedded ovarian cancer clinical specimens and TOV21G xenografts were deparaffinized and representative whole 4-μm-thick sections were analyzed by IHC. […] The samples were removed from the freezer and equilibrated at −20° C. for approximately 15 minutes before sectioning. Tissue sections (6 μm thick) were placed on positively charged slides, dried, and fixed for 15 minutes at room temperature in 3% formaldehyde, followed by 5 minutes in methanol at −20° C. After fixation, representative sections were analyzed by IHC. […] All IHC staining was performed using a Dako autostainer Link48 (Dako).
First, membrane staining intensity (0, 1+, 2+, or 3+) was determined for each cell in a fixed field. The H-score was assigned using the following formula: [1×(% cells 1+)+2×(% cells 2+)+3×(% cells 3+)]. The final score, ranging from 0 to 300, gives more relative weight to higher-intensity membrane staining in a given tumor sample. The percentage of NOXA-, cleaved caspase-3-, cleaved PARP- and Ki67-positive cells (of the total number of cells) in each slide were counted.

[7] = system: ARID1A-proficient and ARID1A-deficient cancer cell lines; test: Cell viability and colony formation in cancer cell line panel; format: cell-based, human

Q: What does the source list for CCCCS(=N)(=O)CCC(N)C(=O)O (stereo not shown) [BSO, buthionine sulfoximine]?
A: ROS level in cancer cell lines (ROS): increased ROS levels; apoptosis (caspase activation, Annexin V) [1]: increased apoptosis; sensitivity to BSO of uterine cancer cell lines [2]: sensitized ARID1A-deficient cell lines more efficiently than ARID1A-proficient cell lines; GSH level in cancer cell lines (GSH): decreased the GSH level; sensitivity to BSO (relative AUC for cell viability) [3]: sensitized these SWI/SNF complexes deficient cell lines more efficiently than these SWI/SNF complexes proficient cell lines; sensitivity to BSO (relative AUC for cell viability) [4]: sensitized ARID1A-deficient PDCs more efficiently than ARID1A-proficient PDCs; sensitivity of ARID1A-deficient versus ARID1A-positive PDCs (ovarian PDCs): more sensitive; sensitivity to BSO of bile duct cancer cell lines [5]: sensitized ARID1A-deficient cell lines more efficiently than ARID1A-proficient cell lines; tumor weight ([6]; BSO 750 mg/kg): reduced tumor weight; body weight of mice ([6]; BSO 750 mg/kg once a day): without loss of body weight; growth of xenografts (tumor volume) ([6]; intraperitoneally once daily 12-14 days, BSO 750 mg/kg): markedly suppressed xenograft growth; sensitivity of ARID1A-deficient TOV21G versus ARID1A-proficient RMG-I ovarian cancer cells ([7]; cell viability after 3 days): more sensitive than ARID1A-proficient RMG-I ovarian cancer cells; sensitivity of ARID1A-deficient versus ARID1A-proficient cancer cells ([7]; four ARID1A-proficient and six ARID1A-deficient cell lines, cell viability, colony formation): selectively sensitive to BSO
